From PMC9103758 (International Journal of Molecular Sciences, 2022)
“Also recorded” adds a separate entry of the source.

Experiments:
[1] = tested on: ATP-induced intracellular calcium signaling in FRT cells; assay: Intracellular calcium measurement (Fluo-4) in FRT cells; type: cell-based, rat; settings: 100 μM ATP
Protocol: (A) Representative Fluo4 fluorescence traces from 3 independent experiments in FRT cells. […] (B,C) Representative apical membrane currents from 3–4 independent experiments in FRT cells expressing human ANO1. […] (D) Representative YFP fluorescence traces in FRT cells expressing human ANO2. […] (E) Representative Fluo4 fluorescence traces from 3 independent experiments in FRT cells. Cells were pretreated with DCPIB for 10 min followed by application of 100 μM ATP. (F) Representative apical membrane currents in FRT cells expressing human ANO1.
FRT cells were plated on 96-well black-walled microplates and loaded with Fluo-4 NW according to the manufacturer’s protocol (Invitrogen, Carlsbad, CA, USA). […] The 96-well plates were transferred to a plate reader for fluorescence assay.

VRAC in HeLa cells = target: T1, VRAC in HeLa cells (Homo sapiens, UniProt Q8IWT6); type: cell-based
T1 construct: endogenous in cells; host or cells: HeLa cervical cancer cells stably expressing the YFP halide sensor
T1 sequence (Q8IWT6 1-810): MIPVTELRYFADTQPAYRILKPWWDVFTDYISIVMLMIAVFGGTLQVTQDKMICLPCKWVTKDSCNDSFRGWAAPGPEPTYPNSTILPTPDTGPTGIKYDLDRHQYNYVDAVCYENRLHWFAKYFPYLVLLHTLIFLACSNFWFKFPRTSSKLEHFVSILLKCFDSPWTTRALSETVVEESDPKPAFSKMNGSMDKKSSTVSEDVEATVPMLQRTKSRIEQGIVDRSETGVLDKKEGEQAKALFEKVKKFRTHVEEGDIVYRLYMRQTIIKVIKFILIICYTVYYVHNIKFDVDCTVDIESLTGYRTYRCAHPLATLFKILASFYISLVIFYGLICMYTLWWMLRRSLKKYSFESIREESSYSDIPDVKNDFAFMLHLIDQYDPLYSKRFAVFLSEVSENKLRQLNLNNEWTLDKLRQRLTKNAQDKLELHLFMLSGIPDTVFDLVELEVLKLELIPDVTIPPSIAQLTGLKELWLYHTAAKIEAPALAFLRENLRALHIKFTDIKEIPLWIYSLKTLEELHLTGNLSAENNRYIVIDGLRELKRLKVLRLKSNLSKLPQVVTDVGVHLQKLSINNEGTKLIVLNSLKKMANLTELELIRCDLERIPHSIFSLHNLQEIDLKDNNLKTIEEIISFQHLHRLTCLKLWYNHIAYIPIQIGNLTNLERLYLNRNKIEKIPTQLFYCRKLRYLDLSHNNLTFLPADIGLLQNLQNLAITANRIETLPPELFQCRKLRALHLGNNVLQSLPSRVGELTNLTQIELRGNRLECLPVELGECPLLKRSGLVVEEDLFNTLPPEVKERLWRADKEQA

human ANO2 = target: T2, human ANO2 (Homo sapiens, UniProt Q9NQ90); assay: YFP fluorescence quenching assay in FRT cells expressing human ANO2; type: cell-based; settings: FRT cells expressing human ANO2, up to 10 μM
T2 construct: expressed in transfected cells; host or cells: Fisher rat thyroid (FRT) cells
T2 sequence (Q9NQ90 1-998): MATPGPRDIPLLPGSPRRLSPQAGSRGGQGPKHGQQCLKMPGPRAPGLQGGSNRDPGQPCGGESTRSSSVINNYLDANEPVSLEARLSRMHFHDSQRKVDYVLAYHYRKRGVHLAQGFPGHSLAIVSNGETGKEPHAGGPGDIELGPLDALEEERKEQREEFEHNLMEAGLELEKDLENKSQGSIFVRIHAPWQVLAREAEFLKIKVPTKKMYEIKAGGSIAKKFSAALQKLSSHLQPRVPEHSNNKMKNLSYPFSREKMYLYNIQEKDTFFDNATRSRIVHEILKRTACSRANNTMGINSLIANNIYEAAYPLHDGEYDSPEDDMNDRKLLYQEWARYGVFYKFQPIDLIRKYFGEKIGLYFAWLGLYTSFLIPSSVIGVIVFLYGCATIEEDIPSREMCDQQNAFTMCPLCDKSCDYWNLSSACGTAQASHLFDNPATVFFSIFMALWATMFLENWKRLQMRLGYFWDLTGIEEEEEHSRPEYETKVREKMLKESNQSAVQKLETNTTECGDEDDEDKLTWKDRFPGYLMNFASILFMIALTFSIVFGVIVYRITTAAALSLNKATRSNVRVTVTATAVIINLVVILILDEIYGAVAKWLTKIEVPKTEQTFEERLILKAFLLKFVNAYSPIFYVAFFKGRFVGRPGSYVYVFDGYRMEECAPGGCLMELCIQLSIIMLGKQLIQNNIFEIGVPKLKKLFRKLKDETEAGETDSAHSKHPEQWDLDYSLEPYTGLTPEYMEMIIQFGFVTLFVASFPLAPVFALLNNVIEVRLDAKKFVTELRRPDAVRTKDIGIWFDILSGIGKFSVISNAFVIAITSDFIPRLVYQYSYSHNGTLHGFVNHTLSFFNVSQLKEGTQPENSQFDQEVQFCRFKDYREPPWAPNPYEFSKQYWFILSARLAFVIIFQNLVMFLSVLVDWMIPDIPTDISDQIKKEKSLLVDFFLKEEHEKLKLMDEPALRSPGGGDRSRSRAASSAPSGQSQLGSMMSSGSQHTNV
Protocol: ANO2 activity was measured using YFP fluorescence quenching assay in FRT cells expressing human ANO2.

SMILES: COc1cccc(C(c2c(O)c3ccccc3oc2=O)c2c(O)c3ccccc3oc2=O)c1O [VI-116, 3,3′-((2-hydroxy-3-methoxyphenyl)methylene)bis(4-hydroxy-2H-chromen-2-one)]
- effect on intracellular calcium signaling ([1]; 30 μM): weak inhibitory effect
- effect on ATP-induced increase in intracellular calcium levels ([1]; up to 10 μM): no effect; also recorded: did not affect
- IC50 (VRAC in HeLa cells): 1200 ± 80 nM
- effect on ANO2 activity (human ANO2): minimal effect
